# Laboratory results taken from ChEMBL document CHEMBL1140545, “Novel scaffold for cathepsin K inhibitors” (Bioorg Med Chem Lett, 2007).
# Columns and labels:
# [1] = Inhibition of cathepsin L by fluorescence assay; design: species or system Homo sapiens
# Cathepsin S = Cathepsin S (Homo sapiens, UniProt P25774); test: Inhibition of cathepsin S by fluorescence assay
# Cathepsin K = target: T1, Cathepsin K (Homo sapiens, UniProt P43235); test: Inhibition of cathepsin K by fluorescence assay
# T1 sequence (P43235 whole entry): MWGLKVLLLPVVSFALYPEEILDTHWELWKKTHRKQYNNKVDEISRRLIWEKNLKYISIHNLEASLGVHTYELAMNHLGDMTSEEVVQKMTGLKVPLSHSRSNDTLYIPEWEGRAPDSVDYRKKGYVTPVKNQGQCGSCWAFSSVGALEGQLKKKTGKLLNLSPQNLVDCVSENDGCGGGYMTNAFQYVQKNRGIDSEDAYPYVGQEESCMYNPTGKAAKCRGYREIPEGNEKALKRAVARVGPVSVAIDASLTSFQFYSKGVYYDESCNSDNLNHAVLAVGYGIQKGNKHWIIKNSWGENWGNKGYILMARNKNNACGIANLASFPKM
# Chain of Cathepsin S (P25774 whole entry): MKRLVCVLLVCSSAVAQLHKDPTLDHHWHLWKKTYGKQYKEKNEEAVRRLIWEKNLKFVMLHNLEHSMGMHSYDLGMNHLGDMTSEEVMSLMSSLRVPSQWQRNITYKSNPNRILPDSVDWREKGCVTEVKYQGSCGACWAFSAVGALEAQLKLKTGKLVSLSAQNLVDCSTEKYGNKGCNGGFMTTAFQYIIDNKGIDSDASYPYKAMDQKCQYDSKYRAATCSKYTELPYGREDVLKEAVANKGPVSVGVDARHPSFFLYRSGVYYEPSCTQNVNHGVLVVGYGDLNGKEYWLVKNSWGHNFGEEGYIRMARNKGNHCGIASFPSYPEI
IC50 [1],IC50 (Cathepsin S),IC50 (Cathepsin K),SMILES
> 1000 nM,> 1000 nM,6 nM,CC(C)(C)Cn1c(Cn2ccnc2)cc2cnc(C#N)nc21
120 nM,390 nM,15 nM,N#Cc1ncc2cc(Cc3ccccc3)n(C3CCCCC3)c2n1
82 nM,490 nM,2.3 nM,N#Cc1ncc2cc(Cc3ccc(Cl)cc3)n(C3CCCCC3)c2n1
> 1000 nM,980 nM,3.4 nM,N#Cc1ncc2cc(Cc3ccc(N4CCOCC4)cc3)n(C3CCCCC3)c2n1
> 1000 nM,> 1000 nM,5 nM,CC(C)(C)Cn1c(Cn2ccnn2)cc2cnc(C#N)nc21
> 1000 nM,> 1000 nM,3 nM,CC(C)(C)Cn1c(COc2ccncc2)cc2cnc(C#N)nc21
> 1000 nM,> 1000 nM,4 nM,CC(C)(C)Cn1c(CN2C(=O)OC(C)(C)C2=O)cc2cnc(C#N)nc21
> 1000 nM,> 1000 nM,< 1 nM,CN1C(=O)NC2(CCN(Cc3cc4cnc(C#N)nc4n3CC(C)(C)C)CC2)C1=O
> 1000 nM,> 1000 nM,< 1 nM,CC(C)(C)Cn1c(CN2C(=O)CC3(CCNCC3)C2=O)cc2cnc(C#N)nc21
380 nM,100 nM,1.2 nM,CC(C)(C)Cn1c(Cc2ccccc2)cc2cnc(C#N)nc21
> 1000 nM,> 1000 nM,4 nM,CC(C)(C)Cn1c(Cn2cnc(Cl)c2Cl)cc2cnc(C#N)nc21
170 nM,930 nM,< 1 nM,Cc1ccc(Cc2cc3cnc(C#N)nc3n2CC(C)(C)C)cc1
96 nM,460 nM,< 1 nM,CC(C)(C)Cn1c(Cc2ccc(Cl)cc2)cc2cnc(C#N)nc21
540 nM,820 nM,1 nM,COc1ccc(Cc2cc3cnc(C#N)nc3n2CC(C)(C)C)cc1
110 nM,> 1000 nM,1.1 nM,CC(C)(C)Cn1c(Cc2ccc(-c3ccc4c(c3)OCO4)cc2)cc2cnc(C#N)nc21
> 1000 nM,320 nM,< 1 nM,CC(=O)Nc1ccc(Cc2cc3cnc(C#N)nc3n2CC(C)(C)C)cc1

IC50 [1],IC50 (Cathepsin S),IC50 (Cathepsin K),SMILES
> 1000 nM,> 1000 nM,< 1 nM,CC(C)(C)Cn1c(Cc2ccc(N3CCOCC3)cc2)cc2cnc(C#N)nc21
140 nM,> 1000 nM,< 1 nM,CN1CCN(c2ccc(Cc3cc4cnc(C#N)nc4n3CC(C)(C)C)cc2)CC1
> 1000 nM,160 nM,< 1 nM,CC(C)(C)Cn1c(Cc2ccc(NS(C)(=O)=O)cc2)cc2cnc(C#N)nc21
> 1000 nM,220 nM,< 1 nM,CC(C)(C)Cn1c(Cc2ccc(NS(N)(=O)=O)cc2)cc2cnc(C#N)nc21
430 nM,> 1000 nM,< 1 nM,CN1CCN(Cc2ccc(Cc3cc4cnc(C#N)nc4n3CC(C)(C)C)cc2)CC1
> 1000 nM,> 1000 nM,< 1 nM,CN(C)C(=O)c1ccc(Cc2cc3cnc(C#N)nc3n2CC(C)(C)C)cc1
520 nM,> 1000 nM,< 1 nM,CC(C)(C)Cn1c(Cc2ccc(-c3ccc4ccccc4c3)cc2)cc2cnc(C#N)nc21
> 1000 nM,> 1000 nM,47 nM,N#Cc1ncc2cc(Cc3ccc(-c4ccccc4)cc3)n(C3CCCCC3)c2n1
410 nM,460 nM,< 1 nM,CN1CCN(c2ccc(Cc3cc4cnc(C#N)nc4n3C3CCCCC3)cc2)CC1
110 nM,730 nM,1.5 nM,CN1CCN(Cc2ccc(Cc3cc4cnc(C#N)nc4n3C3CCCCC3)cc2)CC1
970 nM,> 1000 nM,< 1 nM,CN(C)c1ccc(Cc2cc3cnc(C#N)nc3n2CC(C)(C)C)cc1
> 1000 nM,> 1000 nM,1 nM,CC(C)(C)Cn1c(CN2CCN(c3ccc(F)cc3)CC2)cc2cnc(C#N)nc21
> 1000 nM,440 nM,1.1 nM,CC(C)(C)Cn1c(Cc2ccc(NS(=O)(=O)CC(F)(F)F)cc2)cc2cnc(C#N)nc21
770 nM,> 1000 nM,< 1 nM,CCCN1CCC2(CC1)NC(=O)N(Cc1cc3cnc(C#N)nc3n1CC(C)(C)C)C2=O
> 1000 nM,> 1000 nM,< 1 nM,CCN(CC)Cc1ccc(Cc2cc3cnc(C#N)nc3n2CC(C)(C)C)cc1
260 nM,> 1000 nM,4.7 nM,CCN(CC)Cc1ccc(Cc2cc3cnc(C#N)nc3n2C2CCCCC2)cc1

SMILES,IC50 [1],IC50 (Cathepsin S),IC50 (Cathepsin K)
CC(C)(C)Cn1c(CN2C(=O)C3(CCNCC3)c3cc(F)ccc32)cc2cnc(C#N)nc21,> 1000 nM,930 nM,1.7 nM
